In patent US20180168157A1, “ANTIMICROBIAL COMPOSITIONS COMPRISING FOOD APPROVED ANTIMICROBIALS AND ZINC PYRITHIONE” (Janssen Pharmaceutica NV, priority 2015, published 2018):

Assays:
Assay type in all cases: cell-based
[1] = tested on: Saccharomyces cerevisiae CBS 8803; assay: Poison plate assay (MIC and synergy index), Saccharomyces cerevisiae; settings: ppm total active ingredient, half strength potato dextrose broth, 28° C., evaluation 7 days after inoculation
Source text: wherein: • QA is the concentration of compound A in ppm, acting alone, which produced an end point (e.g. MIC), • Qa is the concentration of compound A in ppm, in the mixture, which produced an end point (e.g. MIC), • QB is the concentration of compound B in ppm, acting alone, which produced an end point (e.g. MIC), • Qb is the concentration of compound B in ppm, in the mixture, which produced an end point (e.g. MIC).
When the Synergy Index is greater than 1.0, antagonism is indicated. When the SI is equal to 1.0, additivity is indicated.

[2] = tested on: Escherichia coli LMG 8063; assay: Poison plate assay (MIC and synergy index), Escherichia coli; settings: ppm total active ingredient, nutrient broth pH 6.8, 28° C., evaluation 7 days after inoculation
Source text: (§1) Experiment 1: Poison Plate Assay
(§2) In the test combinations above, product A is component (I), i.e. zinc pyrithione, and product B is a component (II), i.e. either sodium sulfite (II-a) or lysozyme (II-b).
(§3) Concentration series of total actives: a series of 24 concentrations increasing with steps of ⅓:0.27-0.35-0.47-0.63-0.84-1.13-1.50-2.00-2.67-3.56-4.75-6.33-8.44-11.25-15.00-20.00-26.70-35.60-47.46-63.28-84.38-112.50-150.00-200.00 ppm. • Culture medium: bacteria: nutrient broth (3 g beef extract and 5 g peptone in 1 liter deionised water, pH=6.8.) • Experimental set up: 96-well plates containing 300 μl pf inoculum plus 0.75 μl of a 400× concentrated stock solution of the test compounds per well. • Species of test organisms: Escherichia coli LMG 8063 • Staphylococcus aureus LMG 8195/ATCC 6538P • Inoculum: the nutrient medium is inoculated with an actively growing liquid culture of the test bacteria. • Culture conditions: 28° C., 70% relative humidity, incubation in darkness. • Evaluation: 7 days after inoculation. […]

[3] = tested on: Staphylococcus aureus LMG 8195/ATCC 6538P; assay: Poison plate assay (MIC and synergy index), Staphylococcus aureus; settings: ppm total active ingredient, nutrient broth pH 6.8, 28° C., evaluation 7 days after inoculation
Source text: as §1, §2, §3

| Compound | MIC-values in ppm (minimum inhibitory concentration) [1] [ppm] | MIC-values in ppm (minimum inhibitory concentration) [2] [ppm] | MIC-values in ppm (minimum inhibitory concentration) [3] [ppm] |
| --- | --- | --- | --- |
| O=S([O-])O.[Na+] [sodium bisulfite] | 267 | – | – |
| O=S([O-])[O-].[Na+].[Na+] [sodium sulfite] | – | 267 | – |
| [O-][n+]1ccccc1[S][Zn][S]c1cccc[n+]1[O-] [zinc pyrithione, bis(2-pyridylthio)zinc 1,1′dioxide] | 2.00 | 3.60 | 2.00 |
| lysozyme | – | – | 267 |
